Assay results as given in patent US20240132431A1, “METHOD FOR ALKYLATING ACIDIC FUNCTIONAL GROUP” (Chugai Seiyaku Kabushiki Kaisha, priority 2021, published 2024).
Values belong to the compound of their own block, whether it stands above or below them.

Target: T1, Bcl-2 protein (Recombinant Human Bcl-2 Protein) (Homo sapiens, UniProt P10415)
T1 construct: purchased Novus NBP2-34889
Assay: Binding evaluation of mixture library compounds to Bcl-2 using AS-MS (affinity selection mass spectrometry)
Conditions: AS-MS, mixture library, Bcl-2, ASMS Ratio(%)=(A−C)/B×100; for ASMS ratio (%) n = 1: replicate n = 1; for ASMS ratio (%) n = 2: replicate n = 2
Outline: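 ASMS Ratio (%) was calculated as (A−C)/B×100, where A is the protein sample after SEC, B the protein-free sample without SEC and C the protein-free sample after SEC. Each compound was at […] in a 1200-member pool with 20 μM Bcl-2, incubated 1 h at 23° C.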

T1 sequence (P10415 whole entry): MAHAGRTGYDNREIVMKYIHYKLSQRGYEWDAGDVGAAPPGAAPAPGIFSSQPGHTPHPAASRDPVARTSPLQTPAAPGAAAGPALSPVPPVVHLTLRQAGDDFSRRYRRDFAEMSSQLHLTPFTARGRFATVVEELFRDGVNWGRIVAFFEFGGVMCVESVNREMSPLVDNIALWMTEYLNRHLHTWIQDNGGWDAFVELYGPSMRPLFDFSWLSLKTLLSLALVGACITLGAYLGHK

SMILES: CCOc1cccc(-c2ccc(C(=O)N3CCN(c4ccc(C(=O)NS(C)(=O)=O)nn4)CC3)c3ccccc23)c1 [B2I013-01, 6-[4-[4-(3-Ethoxyphenyl)naphthalene-1-carbonyl]piperazin-1-yl]-N-methylsulfonylpyridazine-3-carboxamide]
ASMS ratio (%) n = 1: 0.0%
ASMS ratio (%) n = 2: 0.0%

SMILES: CCOc1cncc(-c2ccc(C(=O)N3CCN(c4ccc(C(=O)NS(C)(=O)=O)nn4)CC3)c3ccccc23)c1 [B2I014-01, 6-[4-[4-(5-Ethoxypyridin-3-yl)naphthalene-1-carbonyl]piperazin-1-yl]-N-methylsulfonylpyridazine-3-carboxamide]
ASMS ratio (%) n = 1: 1.0%
ASMS ratio (%) n = 2: 2.3%

SMILES: CCOc1cccc(-c2cc(C(=O)N3CCN(c4ccc(C(=O)NS(C)(=O)=O)nn4)CC3)cc(C(C)(C)C)c2)c1 [B2I015-01, 6-[4-[3-tert-Butyl-5-(3-ethoxyphenyl)benzoyl]piperazin-1-yl]-N-methylsulfonylpyridazine-3-carboxamide]
ASMS ratio (%) n = 1: 0.0%
ASMS ratio (%) n = 2: 0.0%

SMILES: CCOc1cccc(C#Cc2cc(C(=O)N3CCN(c4ccc(C(=O)NS(C)(=O)=O)nn4)CC3)cc(C(F)(F)F)c2)c1 [B2I019-01, 6-[4-[3-[2-(3-Ethoxyphenyl)ethynyl]-5-(trifluoromethyl)benzoyl]piperazin-1-yl]-N-methylsulfonylpyridazine-3-carboxamide]
ASMS ratio (%) n = 1: 0.0%

SMILES: CCOc1cccc(-c2csc(C(=O)N3CCN(c4ccc(C(=O)NS(C)(=O)=O)cc4)CC3)c2)c1 [B2I023-01, 4-[4-[4-(3-Ethoxyphenyl)thiophene-2-carbonyl]piperazin-1-yl]-N-methylsulfonylbenzamide]
ASMS ratio (%) n = 1: 0.0%
ASMS ratio (%) n = 2: 0.0%

SMILES: CCOc1cncc(-c2csc(C(=O)N3CCN(c4ccc(C(=O)NS(C)(=O)=O)cc4)CC3)c2)c1 [B2I024-01, 4-[4-[4-(5-Ethoxypyridin-3-yl)thiophene-2-carbonyl]piperazin-1-yl]-N-methylsulfonylbenzamide]
ASMS ratio (%) n = 1: 0.0%
ASMS ratio (%) n = 2: 0.0%

SMILES: CCOc1cccc(-c2ccc(C(=O)N3CCN(c4ccc(C(=O)NS(C)(=O)=O)cc4)CC3)cc2C)c1 [B2I025-01, 4-[4-[4-(3-Ethoxyphenyl)-3-methylbenzoyl]piperazin-1-yl]-N-methylsulfonylbenzamide]
ASMS ratio (%) n = 1: 0.0%
ASMS ratio (%) n = 2: 0.0%

SMILES: CCOc1cncc(-c2ccc(C(=O)N3CCN(c4ccc(C(=O)NS(C)(=O)=O)cc4)CC3)cc2C)c1 [B2I026-01, 4-[4-[4-(5-Ethoxypyridin-3-yl)-3-methylbenzoyl]piperazin-1-yl]-N-methylsulfonylbenzamide]
ASMS ratio (%) n = 1: −2.6%
ASMS ratio (%) n = 2: −0.2%

SMILES: CCOc1cccc(-c2ccc(C(=O)N3CCN(c4ccc(C(=O)NS(C)(=O)=O)cc4)CC3)cc2F)c1 [B2I027-01, 4-[4-[4-(3-Ethoxyphenyl)-3-fluorobenzoyl]piperazin-1-yl]-N-methylsulfonylbenzamide]
ASMS ratio (%) n = 1: 0.0%
ASMS ratio (%) n = 2: 0.0%

SMILES: CCOc1cncc(-c2ccc(C(=O)N3CCN(c4ccc(C(=O)NS(C)(=O)=O)cc4)CC3)cc2F)c1 [B2I028-01, 4-[4-[4-(5-Ethoxypyridin-3-yl)-3-fluorobenzoyl]piperazin-1-yl]-N-methylsulfonylbenzamide]
ASMS ratio (%) n = 1: 0.0%
ASMS ratio (%) n = 2: 0.0%

SMILES: CCOc1cccc(C#Cc2ccccc2C(=O)N2CCN(c3ccc(C(=O)NS(C)(=O)=O)cc3)CC2)c1 [B2I029-01, 4-[4-[2-[2-(3-Ethoxyphenyl)ethynyl]benzoyl]piperazin-1-yl]-N-methylsulfonylbenzamide]
ASMS ratio (%) n = 1: 0.0%
ASMS ratio (%) n = 2: 0.0%

SMILES: CCOc1cncc(C#Cc2ccccc2C(=O)N2CCN(c3ccc(C(=O)NS(C)(=O)=O)cc3)CC2)c1 [B2I030-01, 4-[4-[2-[2-(5-Ethoxypyridin-3-yl)ethynyl]benzoyl]piperazin-1-yl]-N-methylsulfonylbenzamide]
ASMS ratio (%) n = 1: 0.0%
ASMS ratio (%) n = 2: 0.0%

SMILES: CCOc1cccc(C#Cc2cncc(C(=O)N3CCN(c4ccc(C(=O)NS(C)(=O)=O)cc4)CC3)c2)c1 [B2I031-01, 4-[4-[5-[2-(3-Ethoxyphenyl)ethynyl]pyridine-3-carbonyl]piperazin-1-yl]-N-methylsulfonylbenzamide]
ASMS ratio (%) n = 1: 0.0%
ASMS ratio (%) n = 2: 0.0%

SMILES: CCOc1cncc(C#Cc2cncc(C(=O)N3CCN(c4ccc(C(=O)NS(C)(=O)=O)cc4)CC3)c2)c1 [B2I032-01, 4-[4-[5-[2-(5-Ethoxypyridin-3-yl)ethynyl]pyridine-3-carbonyl]piperazin-1-yl]-N-methylsulfonylbenzamide]
ASMS ratio (%) n = 1: −1.6%
ASMS ratio (%) n = 2: −1.6%

SMILES: CCOc1cccc(-c2ccccc2CCC(=O)N2CCN(c3ccc(C(=O)NS(C)(=O)=O)cc3)CC2)c1 [B2I033-01, 4-[4-[3-[2-(3-Ethoxyphenyl)phenyl]propanoyl]piperazin-1-yl]-N-methylsulfonylbenzamide]
ASMS ratio (%) n = 1: 0.0%
ASMS ratio (%) n = 2: 0.0%

Other lines, results leading:

ASMS ratio (%) n = 1: 0.0%
ASMS ratio (%) n = 2: 0.0%
SMILES: CCOc1cncc(-c2cc(C(=O)N3CCN(c4ccc(C(=O)NS(C)(=O)=O)nn4)CC3)cc(C(C)(C)C)c2)c1 [B2I016-01, 6-[4-[3-tert-Butyl-5-(5-ethoxypyridin-3-yl)benzoyl]piperazin-1-yl]-N-methylsulfonylpyridazine-3-carboxamide]

ASMS ratio (%) n = 1: 0.0%
ASMS ratio (%) n = 2: 0.0%
SMILES: CCOc1cccc(-c2cc(C(=O)N3CCN(c4ccc(C(=O)NS(C)(=O)=O)nn4)CC3)cc(C(F)(F)F)c2)c1 [B2I017-01, 6-[4-[3-(3-Ethoxyphenyl)-5-(trifluoromethyl)benzoyl]piperazin-1-yl]-N-methylsulfonylpyridazine-3-carboxamide]

ASMS ratio (%) n = 1: 0.0%
ASMS ratio (%) n = 2: 0.0%
SMILES: CCOc1cncc(-c2cc(C(=O)N3CCN(c4ccc(C(=O)NS(C)(=O)=O)nn4)CC3)cc(C(F)(F)F)c2)c1 [B2I018-01, 6-[4-[3-(5-Ethoxypyridin-3-yl)-5-(trifluoromethyl)benzoyl]piperazin-1-yl]-N-methylsulfonylpyridazine-3-carboxamide]

ASMS ratio (%) n = 1: 0.0%
ASMS ratio (%) n = 2: 0.0%
SMILES: CCOc1cncc(C#Cc2cc(C(=O)N3CCN(c4ccc(C(=O)NS(C)(=O)=O)nn4)CC3)cc(C(F)(F)F)c2)c1 [B2I020-01, 6-[4-[3-[2-(5-Ethoxypyridin-3-yl)ethynyl]-5-(trifluoromethyl)benzoyl]piperazin-1-yl]-N-methylsulfonylpyridazine-3-carboxamide]

ASMS ratio (%) n = 1: 0.0%
ASMS ratio (%) n = 2: 0.0%
SMILES: CCOc1cccc(-c2cnn(-c3cc(C(=O)N4CCN(c5ccc(C(=O)NS(C)(=O)=O)nn5)CC4)cc(C(F)(F)F)c3)c2)c1 [B2I021-01, 6-[4-[3-[4-(3-Ethoxyphenyl)pyrazol-1-yl]-5-(trifluoromethyl)benzoyl]piperazin-1-yl]-N-methylsulfonylpyridazine-3-carboxamide]

ASMS ratio (%) n = 1: 0.0%
ASMS ratio (%) n = 2: 0.0%
SMILES: CCOc1cncc(-c2cnn(-c3cc(C(=O)N4CCN(c5ccc(C(=O)NS(C)(=O)=O)nn5)CC4)cc(C(F)(F)F)c3)c2)c1 [B2I022-01, 6-[4-[3-[4-(5-Ethoxypyridin-3-yl)pyrazol-1-yl]-5-(trifluoromethyl)benzoyl]piperazin-1-yl]-N-methylsulfonylpyridazine-3-carboxamide]
